Paper PMC7926352, “Synthesis, Characterization and In Vitro Evaluation of Novel 5-Ene-thiazolo[3,2-b][1,2,4]triazole-6(5H)-ones as Possible Anticancer Agents” (Molecules, 2021)
Like-named read-outs stand apart in the source and are kept apart here.

Key:
[1] = test system: phospholipase C-γ2 (PLC-γ2); design: method as in PMID 19303309; conditions: at 15 µM; cited from earlier work
[2] = test system: phospholipase C-γ2 (PLC-γ2); design: method as in PMID 19303309; conditions: at 15 µM; cited from earlier work; remark: listed apart in the source
[3] = test system: panel of approximately sixty human tumor cell lines; assay: NCI-60 human tumor cell lines screen (SRB), full panel; type: cell-based; conditions: 10 μM; for activity at 10 µM: Homo sapiens, 60 cell lines assay in one dose, 48 h; for Positive Cytostatic Effect / Positive Cytotoxic Effect: one dose; for Positive Cytostatic Effect: ratio of number of cell lines with percent growth from 0 to 50 to total number of cell lines; for Positive Cytotoxic Effect: ratio of number of cell lines with percent growth of <0 to total number of cell lines
Method: Compounds 2a, 2c–f, 2h–l, 3, 5e, 5f were selected for antitumor activity which was performed according to the standard protocols of National Cancer Institute (NCI, Bethesda, MD, USA) Developmental Therapeutic Program (DTP). At the prescreening stage, the compounds were evaluated for antitumor activity at the concentration of 10 µM against a panel of approximately sixty cancer cell lines representing different types of cancer including leukemia, melanoma, lung, colon, CNS, ovarian, renal, prostate and breast cancers.
Among them, three compounds (2d, 2h, 2i) presented excellent cytotoxic and four derivatives (2d, 2h, 2i, 2k) cytostatic properties in one or more cell lines when applied at a concentration of 10 µM. […] The outcomes were calculated and presented in the form of three response parameters (GI50, TGI and LC50) for each cell line via growth percentage inhibition curves. […]
The primary anticancer assay was performed on a panel of approximately sixty human tumor cell lines derived from nine neoplastic diseases (leukemia, melanoma, lung, colon, CNS, ovarian, renal, prostate, and breast cancers), in accordance with the protocol of the National Cancer Institute Drug Evaluation Branch (Bethesda, MD, USA). Tested compounds were added to the culture at a single concentration (10^−5 M) and the cultures were incubated for 48 h. End-point determinations were made with a protein-binding dye, sulforhodamine B (SRB). Results for each tested compound were reported as the percentage of the growth of the treated cells when compared to the untreated control cells. The percentage of the growth was evaluated spectrophotometrically versus controls not treated with test agents. […] Using absorbance measurements [time zero (Tz), control growth in the absence of drug (C), and test growth in the presence of the drug (Ti)], the percentage growth was calculated for each drug concentration. Percentage growth inhibition was calculated as:[(Ti − Tz)/[…]] × 100(1) for concentrations for which Ti ≥ Tz, [(Ti − Tz)/Tz] × 100 for concentrations for which Ti < Tz. Dose-response parameters (GI50, TGI) were calculated for each compound. Growth inhibition of 50% (GI50) was calculated from [(Ti − Tz)/(C − Tz)] × 100 = 50, which is the drug concentration resulting in a 50% lower net protein increase in the treated cells (measured by SRB staining) as compared to the net protein increase seen in the control cells. The drug concentration resulting in total growth inhibition (TGI) was calculated from Ti = Tz. Values were calculated for each of these parameters if the level of activity was reached; however, if the effect was not reached or was excessive, the value for that parameter was expressed as more or less than the maximum or minimum concentration tested. The lowest values were obtained with the most sensitive cell lines. Compounds having GI50 values ≤ 100 μM were declared to be active. The selectivity index (SI) calculated by dividing the full panel MG_MID (full-panel mean-graph midpoint) (μM) of the compounds 2h and 2i by their individual subpanel MG_MID of a cell line (μM) was considered as a measure of compounds’ selectivity. Ratios between 3 and 6 mean moderate selectivity, ratios greater than 6 indicate high selectivity toward the corresponding cell line, while compounds not meeting either of these criteria are rated nonselective.

Row | melting point [°C] | SMILES | PLC-γ2 inhibition, calcium release cell-based assay [1] | PLC-γ2 inhibition, biochemical assay [2] | activity at 10 µM ([3]; read-out: Mean Growth, %) [%] | activity at 10 µM ([3]; read-out: Range of Growth, %) [%] | Positive Cytostatic Effect [3] | Positive Cytotoxic Effect [3]
1 |  | O=c1/c(=C/c2ccccc2[N+](=O)[O-])sc2nc(-c3ccc(F)cc3)nn12 [CCT-196700] | satisfactory activity parameters | satisfactory activity parameters |  |  |  | 
2 |  | O=c1/c(=C/c2ccccc2F)sc2ncnn12 [Compound 2a, (Z)-5-(2-Fluorobenzylidene)thiazolo[3,2-b][1,2,4]triazol-6(5H)-one] |  |  | 90 | 52.8 to 123 | 0/59 | 0/59
3 | 196 to 198 | COc1ccccc1/C=c1\sc2ncnn2c1=O [Compound 2b, (Z)-5-(2-Methoxybenzylidene)thiazolo[3,2-b][1,2,4]triazol-6(5H)-one] |  |  |  |  |  | 
4 |  | C=CCOc1ccccc1/C=c1\sc2ncnn2c1=O [Compound 2c, (Z)-5-(2-(Allyloxy)benzylidene)thiazolo[3,2-b][1,2,4]triazol-6(5H)-one] |  |  | 103 | 77.1 to 146 | 0/59 | 0/59
5 |  | CC(=O)Oc1ccc(/C=c2\sc3ncnn3c2=O)cc1 [Compound 2d, (Z)-4-((6-Oxothiazolo[3,2-b][1,2,4]triazol-5(6H)-ylidene)methyl)phenyl acetate] |  |  | 99.7 | -73.9 to 148 | 2/58 | 3/58
6 |  | CCN(CC)c1ccc(/C=c2\sc3ncnn3c2=O)cc1 [Compound 2e, (Z)-5-(4-(Diethylamino)benzylidene)thiazolo[3,2-b][1,2,4]triazol-6(5H)-one] |  |  | 102 | 61.9 to 134 | 0/58 | 0/58
7 |  | COc1ccc(/C=c2\sc3ncnn3c2=O)cc1OC [Compound 2f, (Z)-5-(3,4-Dimethoxybenzylidene)thiazolo[3,2-b][1,2,4]triazol-6(5H)-one] |  |  | 108 | 86.7 to 262 | 0/57 | 0/57
8 | 260 to 262 | Cc1cccc(NC(=O)COc2ccc(Cl)cc2/C=c2\sc3ncnn3c2=O)c1 [Compound 2g, (Z)-2-(4-Chloro-2-((6-oxothiazolo[3,2-b][1,2,4]triazol-5(6H)-ylidene)methyl)phenoxy)-N-(m-tolyl)acetamide] |  |  |  |  |  | 
9 |  | O=c1/c(=C/c2ccco2)sc2ncnn12 [Compound 2j, (Z)-5-(Furan-2-ylmethylene)thiazolo[3,2-b][1,2,4]triazol-6(5H)-one] |  |  | 106 | 82.4 to 136 | 0/56 | 0/56
10 |  | O=c1c(=Cc2cccs2)sc2ncnn12 [Compound 2k, (Z)-5-(Thiophen-2-y-lmethylene)thiazolo[3,2-b][1,2,4]triazol-6(5H)-one] |  |  | 111 | 25.2 to 180 | 1/56 | 0/56
11 |  | CC(=O)n1cc(/C=c2\sc3ncnn3c2=O)c2ccccc21 [Compound 2l, (Z)-5-((1-Acetyl-1H-indol-3-yl)methylene)thiazolo[3,2-b][1,2,4]triazol-6(5H)-one] |  |  | 105 | 66.9 to 141 | 0/59 | 0/59
12 |  | O=C(O)CSc1nnc[nH]1 [Compound 3, 2-((1H-1,2,4-Triazol-3-yl)thio)acetic Acid] |  |  | 97.2 | 74.8 to 122 | 0/59 | 0/59
13 |  | O=c1/c(=C/Nc2cccc(O)c2)sc2ncnn12 [Compound 5e, (E/Z)-5-(((3-Hydroxyphenyl)amino)methylene)thiazolo[3,2-b][1,2,4]triazol-6(5H)-one] |  |  | 101 | 80.3 to 138 | 0/59 | 0/59
14 |  | O=c1/c(=C/Nc2ccc(Cl)cc2)sc2ncnn12 [Compound 5f, (E/Z)-5-(((4-Chlorophenyl)amino)methylene)thiazolo[3,2-b][1,2,4]triazol-6(5H)-one] |  |  | 93.6 | 54.4 to 112 | 0/59 | 0/59
15 | > 250 | O=c1/c(=C/N2CCc3ccccc32)sc2ncnn12 [Compound 6a, (Z)-5-(Indolin-1-ylmethylene)thiazolo[3,2-b][1,2,4]triazol-6(5H)-one] |  |  |  |  |  | 
16 | 190 to 192 | O=c1/c(=C/N2CCCCC2)sc2ncnn12 [Compound 6b, (Z)-5-(Piperidin-1-ylmethylene)thiazolo[3,2-b][1,2,4]triazol-6(5H)-one] |  |  |  |  |  | 
17 | 189 to 192 | O=c1/c(=C/N2CCN(CCO)CC2)sc2ncnn12 [Compound 6c, (Z)-5-((4-(2-Hydroxyethyl)piperazin-1-yl)methylene)thiazolo[3,2-b][1,2,4]triazol-6(5H)-one] |  |  |  |  |  | 
18 | 204 to 206 | CCOC(=O)N1CCN(/C=c2\sc3ncnn3c2=O)CC1 [Compound 6d, Ethyl(Z)-4-((6-oxothiazolo[3,2-b][1,2,4]triazol-5(6H)-ylidene)methyl)piperazine-1-carboxylate] |  |  |  |  |  | 
